Earlier results as cited in article PMC8619046, “ABCB1 and ABCG2 Control Brain Accumulation and Intestinal Disposition of the Novel ROS1/TRK/ALK Inhibitor Repotrectinib, While OATP1A/1B, ABCG2, and CYP3A Limit Its Oral Availability” (Pharmaceutics, 2021).

Conditions: cited from earlier work; for brain-to-plasma ratio: wild-type mice; for fold increase of brain-to-plasma ratio: combined genetic knockout of Abcb1 and Abcg2, mice

Compound	fold enhancement of brain-to-plasma ratio (mouse, in vivo)	brain-to-plasma ratio	fold increase of brain-to-plasma ratio
C[C@@H](Oc1cc(-c2cnn(C3CCNCC3)c2)cnc1N)c1c(Cl)ccc(F)c1Cl [crizotinib]	~ 15 fold	about 0.2	
C[C@H]1Oc2cc(cnc2N)-c2c(nn(C)c2C#N)CN(C)C(=O)c2ccc(F)cc21 [lorlatinib]		0.4	4 fold
C[C@@H]1CCc2ncc(F)cc2[C@H]2CCCN2c2ccn3ncc(c3n2)C(=O)N1 [selitrectinib]		0.03	6 fold
